Consider four molecules from patent US10385063B2, “Herbicidal compounds” (Syngenta Participations AG, priority 2015, dated 2019).

Structures are written as SMILES.

Holding throughout (assay): Post-emergence efficacy, glasshouse pot test
Holding throughout (type): in vivo
Holding throughout (details): evaluated after 13 days

One assay relates to Lolium perenne (LOLPE). On the procedure: (§1) B1 Post-emergence Efficacy Seeds of a variety of test species are sown in standard soil in pots:— Solanum nigrum (SOLNI), Amaranthus retoflexus (AMARE), Setaria faberi (SETFA), Echinochloa crus-galli (ECHCG), Ipomoea hederacea (IPOHE), Lolium perenne (LOLPE). After 8 days cultivation (post-emergence) under controlled conditions in a glasshouse (at 24/16° C., day/night; 14 hours light; 65% humidity), the plants are sprayed with an aqueous spray solution derived from the formulation of the technical active ingredient in acetone/water (50:50) solution containing 0.5% Tween 20 (polyoxyethylene sorbitan monolaurate, CAS RN 9005-64-5). Compounds are applied at 1000 g/ha and 250 g/ha. The test plants are then grown in a glasshouse under controlled conditions in a glasshouse (at 24/16° C., day/night; 14 hours light; 65% humidity) and watered twice daily. After 13 days, the test is evaluated for the percentage damage caused to the plant. The biological activities are shown below in Table B1, on a five point scale (5=80-100%; 4=60-79%; 3=40-59%; 2=20-39%; 1=0-19%).

In a further assay the test system is Solanum nigrum (SOLNI). On the procedure: as §1
Assay [1] deals with Echinochloa crus-galli (ECHCG). On the procedure: as §1
Assay [2] has as its system Amaranthus retoflexus (AMARE). On the procedure:
as §1

Assay [3] concerns Ipomoea hederacea (IPOHE). On the procedure: as §1
The test system of the next assay is Setaria faberi (SETFA). On the procedure: as §1

Take `CC1(C)C(=O)C(c2c(Cl)ccc(Cl)c2OCc2ccccc2)C(=O)c2nccnc21` (stereo not drawn) [Compound 1.01, 7-(2-benzyloxy-3,6-dichloro-phenyl)-8-hydroxy-5,5-dimethyl-quinoxalin-6-one]: the “percentage damage caused to the plant, LOLPE (five point scale)” value in the assay on Lolium perenne (LOLPE) (250 g/Ha) and in the assay on Lolium perenne (LOLPE) (1000 g/Ha) was 5 (5=80-100%) throughout. The “percentage damage caused to the plant, SOLNI (five point scale)” value in the assay on Solanum nigrum (SOLNI) (250 g/Ha) and in the assay with Solanum nigrum (SOLNI) (1000 g/Ha) was 5 (5=80-100%) each time. Besides, the “percentage damage caused to the plant, ECHCG (five point scale)” value in assay [1] (250 g/Ha) and in assay [1] (1000 g/Ha) was 5 (5=80-100%) each time. Further, the “percentage damage caused to the plant, AMARE (five point scale)” value in assay [2] (250 g/Ha) and in assay [2] (1000 g/Ha) was 5 (5=80-100%) in each case. Further, the “percentage damage caused to the plant, IPOHE (five point scale)” value in assay [3] (250 g/Ha) and in assay [3] (1000 g/Ha) was 5 (5=80-100%) in each case. The “percentage damage caused to the plant, SETFA (five point scale)” value in the assay with Setaria faberi (SETFA) (250 g/Ha) and in the assay on Setaria faberi (SETFA) (1000 g/Ha) was 5 (5=80-100%) throughout.

Turning to `CC1(C)C(=O)C(c2c(F)ccc(Cl)c2OCc2ccccc2)C(=O)c2nccnc21` (stereo not drawn) [Compound 1.02], the “percentage damage caused to the plant, LOLPE (five point scale)” value in the assay with Lolium perenne (LOLPE) (250 g/Ha) and with Lolium perenne (LOLPE) (1000 g/Ha) was 5 (5=80-100%) each time. Further, the “percentage damage caused to the plant, SOLNI (five point scale)” value with Solanum nigrum (SOLNI) (250 g/Ha) and in the assay with Solanum nigrum (SOLNI) (1000 g/Ha) was 5 (5=80-100%) throughout. Moreover, the “percentage damage caused to the plant, ECHCG (five point scale)” value in assay [1] (250 g/Ha) and in assay [1] (1000 g/Ha) was 5 (5=80-100%) throughout. Further, the “percentage damage caused to the plant, AMARE (five point scale)” value in assay [2] (250 g/Ha) and in assay [2] (1000 g/Ha) was 5 (5=80-100%) in each case. Also, the “percentage damage caused to the plant, IPOHE (five point scale)” value in assay [3] (250 g/Ha) and in assay [3] (1000 g/Ha) was 5 (5=80-100%) in each case. The “percentage damage caused to the plant, SETFA (five point scale)” value in the assay on Setaria faberi (SETFA) (250 g/Ha) and in the assay with Setaria faberi (SETFA) (1000 g/Ha) was 5 (5=80-100%) in each case.

`CC1(C)c2nccnc2C(=O)C(c2c(F)ccc(Cl)c2OCc2ccccc2)S1(=O)=O` (stereo not drawn) [Compound 1.08, 7-(2-benzyloxy-3-chloro-6-fluoro-phenyl)-5,5-dimethyl-6,6-dioxo-thiopyrano[3,4-b]pyrazin-8-ol]: the “percentage damage caused to the plant, LOLPE (five point scale)” value in the assay with Lolium perenne (LOLPE) (250 g/Ha) and with Lolium perenne (LOLPE) (1000 g/Ha) was 5 (5=80-100%) in each case. Further, the “percentage damage caused to the plant, SOLNI (five point scale)” value with Solanum nigrum (SOLNI) (250 g/Ha) and in the assay on Solanum nigrum (SOLNI) (1000 g/Ha) was 5 (5=80-100%) throughout. Also, the entries for the “percentage damage caused to the plant, ECHCG (five point scale)” value in assay [1] (250 g/Ha) and in assay [1] (1000 g/Ha) were 4 (4=60-79%) and 5 (5=80-100%), respectively. Also, the “percentage damage caused to the plant, AMARE (five point scale)” value in assay [2] (250 g/Ha) and in assay [2] (1000 g/Ha) was 5 (5=80-100%) in each case. Besides, the “percentage damage caused to the plant, IPOHE (five point scale)” value in assay [3] (250 g/Ha) and in assay [3] (1000 g/Ha) was 5 (5=80-100%) in each case. Moreover, the “percentage damage caused to the plant, SETFA (five point scale)” value with Setaria faberi (SETFA) (250 g/Ha) and in the assay on Setaria faberi (SETFA) (1000 g/Ha) was 5 (5=80-100%) throughout.

For `O=C1c2nccnc2CS(=O)(=O)C1c1c(Cl)ccc(Cl)c1OCc1ccccc1` (stereo not drawn) [Compound 1.13], the “percentage damage caused to the plant, LOLPE (five point scale)” value in the assay with Lolium perenne (LOLPE) (250 g/Ha) and in the assay on Lolium perenne (LOLPE) (1000 g/Ha) was 5 (5=80-100%) throughout. In addition, the “percentage damage caused to the plant, SOLNI (five point scale)” value in the assay with Solanum nigrum (SOLNI) (250 g/Ha) and with Solanum nigrum (SOLNI) (1000 g/Ha) was 5 (5=80-100%) throughout. In addition, the “percentage damage caused to the plant, ECHCG (five point scale)” value in assay [1] (250 g/Ha) and in assay [1] (1000 g/Ha) was 5 (5=80-100%) each time. The “percentage damage caused to the plant, AMARE (five point scale)” value in assay [2] (250 g/Ha) and in assay [2] (1000 g/Ha) was 5 (5=80-100%) each time. Also, the “percentage damage caused to the plant, IPOHE (five point scale)” value in assay [3] (250 g/Ha) and in assay [3] (1000 g/Ha) was 5 (5=80-100%) each time. The “percentage damage caused to the plant, SETFA (five point scale)” value with Setaria faberi (SETFA) (250 g/Ha) and with Setaria faberi (SETFA) (1000 g/Ha) was 5 (5=80-100%) each time.
